The values that follow come from patent publication US20220401586A1, “CARBON QUANTUM DOTS AND USES THEREOF” (CNANO MEDICINE CORP., priority 2019, published 2022).

Where a name gives a salt, the structure may show the parent alone.

The target of data set [1] is T1, LAT1 (Homo sapiens, UniProt Q01650).
T1 construct: we treated HeLa cells with an excess of leucine (Leu), phenylalanine (Phe), or glycine (Gly) prior to adding LAAM TC-CQDs; endogenous in cells; host or cells: HeLa (also A549, PANC-1, MCF-7, MDA-MB-231, MDA-MB-231 SP in the flow cytometry)
Briefly: LCSM: effect of Leu, Phe, Gly or BCH pre-treatment on uptake of LAAM TC-CQDs. It is filed as cell-based. The note with it: HeLa cells, excess of the agent prior to adding LAAM TC-CQDs. Here is the method: (§1) To investigate the mechanism that accounts for the cellular uptake of LAAM TC-CQDs, we treated HeLa cells with an excess of leucine (Leu), phenylalanine (Phe), or glycine (Gly) prior to adding LAAM TC-CQDs. Except Gly, both Leu and Phe are known to be high-affinity substrates to LAT1^27. […] This hypothetical mechanism is supported by several lines of evidence.
Confocal laser scanning microscope imaging. […] After 8 h, cells were washed with PBS twice, fixed with 4% polyformaldehyde for 30 min at room temperature, followed by addition of DAPI for cell nuclei staining. Finally, the slides were washed three times, fixed, sealed with cover glasses, and imaged with excitation/emission: 561/700 using a confocal laser scanning microscopy (Leica TCS-SP8, Germany). To determine the effects of Leu, Phe, Gly or BCH on CQD uptake, HeLa cells were placed and treated with Leu, Phe, Gly or BCH. Four hours later, LAAM TC-CQDs were added to cells. After an additional 8 h, the cells were washed, fixed, and imaged.

The target of data set [2] is T1, LAT1. Briefly: Flow cytometry: uptake rate of LAAM TC-CQDs after BCH pre-treatment. It is filed as cell-based. The note with it: across HeLa, A549, PANC-1, MCF-7, MDA-MB-231, MDA-MB-231 SP cells.
From the text: as §1
Flow cytometry. MDA-MB-231 SP cells were sorted according to our previously reported methods^22. Briefly, cells harvested at about 85% confluence were resuspended in RPMI-1640 supplemented with 2% fetal bovine serum (FBS) at a density of 1×10^6 cells/mL and incubated with Hoechst 33342 at a concentration of 5 μg/mL at 37° C. After 90 min, the cells were suspended in cold PBS at a concentration of 1×10^6 cells/mL, filtered through a 40 μm cell strainer to remove cell aggregates, stained with 1 μg/mL propidium iodide (PI), and analyzed and sorted using a FACSDiva (Becton Dickinson, USA). […] The cells were washed 3 times with cold PBS, resuspended in […] of cold PBS, and analyzed by a FACScan flow cytometer (BD, Ann Arbor, Mich.). […] After 12 h, the cells were washed with fresh medium, trypsinized, resuspended in PBS with 0.5% FBS, and analyzed using a BD FACSCalibur (BD Biosciences, USA). Data were analyzed using FlowJo 7.6.

A short description of data set [3]: Toxicity evaluation in mice. It counts as in vivo. Here is the method:
Toxicity evaluation in mice. Female BALB/c mice were intravenously administered with TPTC (10 mg/kg, 0.05 mL per mice) or TPTC/TC-CQDs (10 mg/kg for TPTC, 0.05 mL per mice) (n=5). Mice treated with saline were used as controls. At selected time points, blood samples were collected in heparinized microhematocrit tubes and centrifuged at a speed of 3000 rpm for 10 min. At the end of the study, mice were euthanized. Major organs, including the heart, liver, spleen, kidney and lung were excised, fixed in formalin, and analyzed.

For data set [4], the system named is HeLa cells. Briefly: Cellular toxicity test (CCK-8). It counts as cell-based, Human. To be noted: concentration equivalent to 5 ug/mL TPTC. As for the experimental part:
(§2) Cellular toxicity tests. […] After 12 h, the cultured medium was removed, and washed with PBS. One hundred microliters of fresh medium containing 10 μL CCK-8 (Sigma) was added to each well. After 2 h incubation at 37° C., the absorbance at 450 nm was measured using a microplate reader.

Data set [5] deals with CCC-ESF-1 cells. Kind of data set: Cellular toxicity test (CCK-8). The note with it: concentration equivalent to 5 ug/mL TPTC. It is filed as cell-based, Human. Here is the method:
as §2

A short description of data set [6]: in vivo. To be noted: BALB/c, mouse. Here is the method:
We repeated the characterization studies using A549 tumours. Experiments were carried out according to the same procedures as described above.

For data set [7], the system named is HeLa tumors. Briefly: Therapeutic evaluation in mice bearing HeLa tumors. It is filed as in vivo. The note with it: for tumors fifteen days later: intravenous. As for the experimental part:
We assessed TPTC/TC-CQDs for cancer treatment using mice bearing HeLa tumors. […]
Therapeutic evaluation in tumor-bearing mice. HeLa cells were subcutaneously inoculated into female BALB/c mice. When the tumor volumes reached ˜100 mm^3, the mice were intravenously administered with, saline, TPTC or TPTC/TC-CQDs (n=5). Changes in tumor volume and body weight were monitored daily. The volume of the tumor was calculated according to the following formula: V=D×d^2/2 (where D and d are the longest and shortest diameters of tumor, respectively, measured using a vernier caliper). Relative tumor volumes were calculated as V/V0(V0 is the initial tumor volume when the treatment was started).

Data set [8] is described as follows: in vivo. The note with it: BALB/c, mouse, iv. Here is the method:
We determined the pharmacokinetics of TPTC/TC-CQDs in mice bearing HeLa tumors. TPTC or TPTC/TC-CQDs were administered intravenously at a dose equivalent to 10 mg/kg TPTC, and the blood was collected at various time points. TPTC in the plasma was quantified by high performance liquid chromatography (HPLC). […] A second cohort of mice received the same treatment was subjected to characterization for biodistribution of TPTC based on TPTC fluorescence.
The same lipid composition was used in several FDA-approved liposomal formulations, including Doxil© 38. […] The blood was collected at various time points. TPTC in the plasma was quantified by high performance liquid chromatography (HPLC).

Setting [9] is: 10 mg/kg TPTC (or equivalent) at days 1, 4, 8, and 12.

T1 sequence (Q01650 whole entry): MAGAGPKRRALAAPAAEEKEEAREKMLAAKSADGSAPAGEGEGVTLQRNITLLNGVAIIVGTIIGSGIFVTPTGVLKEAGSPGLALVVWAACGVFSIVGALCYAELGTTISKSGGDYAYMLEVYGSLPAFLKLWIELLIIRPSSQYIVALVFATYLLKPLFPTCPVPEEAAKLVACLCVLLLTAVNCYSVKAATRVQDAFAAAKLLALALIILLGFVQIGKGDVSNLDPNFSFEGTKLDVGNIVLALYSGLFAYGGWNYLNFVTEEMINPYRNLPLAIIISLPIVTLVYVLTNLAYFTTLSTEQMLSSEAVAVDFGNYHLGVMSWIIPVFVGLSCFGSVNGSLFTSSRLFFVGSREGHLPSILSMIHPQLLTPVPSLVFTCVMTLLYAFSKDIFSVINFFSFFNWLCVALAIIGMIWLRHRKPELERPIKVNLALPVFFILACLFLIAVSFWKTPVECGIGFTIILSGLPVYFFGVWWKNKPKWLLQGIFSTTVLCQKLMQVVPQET
T1 sequence (P08195 102-630 partner): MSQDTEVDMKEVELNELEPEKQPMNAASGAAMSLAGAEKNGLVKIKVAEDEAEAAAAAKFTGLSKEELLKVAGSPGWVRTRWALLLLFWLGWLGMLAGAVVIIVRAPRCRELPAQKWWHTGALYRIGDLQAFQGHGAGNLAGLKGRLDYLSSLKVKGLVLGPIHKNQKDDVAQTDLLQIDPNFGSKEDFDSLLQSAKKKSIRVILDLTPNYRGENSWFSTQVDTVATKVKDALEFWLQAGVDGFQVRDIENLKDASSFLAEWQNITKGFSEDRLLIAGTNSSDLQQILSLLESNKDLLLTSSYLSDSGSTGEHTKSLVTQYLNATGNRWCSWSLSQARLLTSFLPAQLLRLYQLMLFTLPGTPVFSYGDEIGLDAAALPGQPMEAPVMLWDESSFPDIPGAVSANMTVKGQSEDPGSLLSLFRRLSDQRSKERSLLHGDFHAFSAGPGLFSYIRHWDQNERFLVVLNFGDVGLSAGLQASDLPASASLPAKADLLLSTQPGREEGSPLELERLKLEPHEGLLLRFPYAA

For the compound `CC(C)C[C@H](N)C(=O)O` [Leu, leucine], the “effect of pre-treatment on uptake of LAAM TC-CQDs” value (from here on “effect of pre-treatment”) in data set [1] is “significantly inhibited”.

In the case of `NC1(C(=O)O)CC2CCC1C2` (stereo not shown) [BCH, 2-aminobicyclo-(2,2,1)-heptane-2-carboxylic acid], in data set [1], the “effect of pre-treatment” value is on record as “dramatically reduces”. Besides, the “cellular uptake rate of LAAM TC-CQDs after pre-treatment with BCH” value in data set [2] was roughly 20%.

`N[C@@H](Cc1ccccc1)C(=O)O` [Phe, phenylalanine]: the “effect of pre-treatment” value in data set [1] is given as “significantly inhibited”.

For orientation: half-life means how long it takes for the measured level to halve. A higher half-life goes with slow decline. For `CC[C@@]1(O)C(=O)OCc2c1cc1n(c2=O)Cc2cc3c(CN(C)C)c(O)ccc3nc2-1` [TPTC, topotecan hydrochloride], the “H&E analysis of major organs” value in data set [3] is “obvious myocardial fiber rupture, diffuse ballooning degeneration of hepatocytes, pulmonary hyperemia, and focal tubular necrosis”. In addition, in data set [3] (throughout the study), the body weight result is reported as “weight loss was observed”. Moreover, the “toxicity to HeLa cells” value in data set [4] is recorded as “inhibited both cells at a comparable efficiency”. For the same compound, in data set [5], the “toxicity to non-cancerous CCC-ESF-1 cells” value was “inhibited both cells at a comparable efficiency”. For the same compound, the half-life in data set [6] was 5.9 min; in data set [8] (2 mg/kg), 5.4 min; in data set [8] (10 mg/kg), 5 min. Moreover, the median survival in data set [7] (2 mg/kg TPTC (or equivalent)) was determined as 30 days. Moreover, the survival in data set [7] (setting [9]) came out at 40 days. Further, the “tumors fifteen days later” value in data set [7] (2 mg/kg TPTC (or equivalent) at days 1, 4, 8, and 12) is listed as “continuously grew”; in data set [7] (setting [9]) it was “continuously grew”.

Turning to `NCC(=O)O` [Gly, glycine], in data set [1], the “effect of pre-treatment” value was “not”.
